Data published in patent publication US20230278972A1, “SUBSTITUTED HALOALKYL SULFONANILIDE HERBICIDES” (FMC Corporation, priority 2020, published 2023).

Tests used:
Assay type in all cases: in vivo
[1] = tested on: ducksalad (Heteranthera limosa); experiment: Test B1 flooded paddy test, ducksalad; conditions: 250 g ai/ha, Flood, applied to paddy water, 2-leaf stage, visually evaluated after 10 to 14 days
Text: A dash (-) response means no test result.

[2] = tested on: galium (catchweed bedstraw, Galium aparine); experiment: Test A1 postemergence, galium; conditions: for Galium plant response rating: 31 g ai/ha, postemergence; for Plant response rating, Galium: Postemergence
Summary of the method: (§1)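 Pre: seeds in loam/sand blend, directed soil spray. Post: potted plants, same soil, 2–10 cm, 1–2 leaf stage. Chemicals in non-phytotoxic solvent + surfactant for both.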

[3] = tested on: ragweed (common ragweed, Ambrosia artemisiifolia); experiment: Test A1 preemergence, ragweed
Summary of the method: (§2)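 Herbicidal response was scored on plants treated either preemergence, by directed spray onto soil of a loam–sand blend after sowing, or postemergence on potted plants at the one- to two-leaf stage, 2–10 cm high. Test chemicals were carried in a non-phytotoxic solvent mix with surfactant.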

[4] = tested on: Oat, Wild (wild oat, Avena fatua); experiment: Test A1 postemergence, Oat, Wild; conditions: for Oat, Wild plant response rating: 31 g ai/ha, postemergence; for Plant response rating, Oat, Wild: Postemergence
Summary of the method: as §1

kochia (Bassia scoparia) = experiment: Test A1 preemergence, kochia
Summary of the method: as §2

[5] = 0 to 100 scale (0 no effect, 100 complete control)
[6] = 31 g ai/ha, 0 to 100 scale (0 no effect, 100 complete control)
[7] = 125 g ai/ha, 0 to 100 scale, 0 no effect, 100 complete control
[8] = 125 g ai/ha, 0 to 100 scale (0 no effect, 100 complete control), 10 days
[9] = 500 g ai/ha, 0 to 100 scale (0 no effect, 100 complete control)
[10] = 125 g ai/ha, 0 to 100 scale (0 no effect, 100 complete control)

Cc1cc(C)c(C2=NOC3OCCCC23)cc1NS(=O)(=O)C(F)(F)F (stereo not drawn) [Compound 372]
Plant response rating, Ducksalad (0 to 100 scale, 0 is no effect, 100 is complete control) [1]: 65
Galium plant response rating [2, 5]: 60
Plant response rating, Galium ([2]; 125 g ai/ha, 0 to 100 scale): 80
Plant response rating, Ragweed [3, 6]: 0
Plant response rating, Ragweed [3, 7]: 70
Oat, Wild plant response rating [4, 5]: 0
Plant response rating, Oat, Wild ([4]; 125 g ai/ha, 0 to 100 scale): 10
Plant response rating, Kochia (kochia (Bassia scoparia); [6]): 0
Plant response rating, Kochia (kochia (Bassia scoparia); [7]): 70

Cc1ccc(C2=NOC3CCCC23)cc1NS(=O)(=O)C(F)(F)F (stereo not drawn) [Compound 377]
Plant response rating, Ducksalad (0 to 100 scale, 0 is no effect, 100 is complete control) [1]: 15
Galium plant response rating [2, 5]: 0
Plant response rating, Galium ([2]; 125 g ai/ha, 0 to 100 scale): 0
Plant response rating, Ragweed [3, 6]: 0
Plant response rating, Ragweed [3, 7]: 0
Oat, Wild plant response rating [4, 5]: 0
Plant response rating, Oat, Wild ([4]; 125 g ai/ha, 0 to 100 scale): 0
Plant response rating, Kochia (kochia (Bassia scoparia); [6]): 0
Plant response rating, Kochia (kochia (Bassia scoparia); [7]): 20

CCc1cc(C)c(N(COC(=O)C(C)(C)C)S(=O)(=O)C(F)(F)F)cc1C1=NOC2CCCC12 (stereo not drawn) [Compound 378]
Plant response rating, Ducksalad (0 to 100 scale, 0 is no effect, 100 is complete control) [1]: 20
Galium plant response rating [2, 5]: 20
Plant response rating, Galium ([2]; 125 g ai/ha, 0 to 100 scale): 40
Plant response rating, Ragweed [3, 6]: 0
Plant response rating, Ragweed [3, 7]: 0
Oat, Wild plant response rating [4, 5]: 0
Plant response rating, Oat, Wild ([4]; 125 g ai/ha, 0 to 100 scale): 30
Plant response rating, Kochia (kochia (Bassia scoparia); [6]): 0
Plant response rating, Kochia (kochia (Bassia scoparia); [7]): 20

Cc1cc(C)c(C2=NOC(C(C)C)C2)cc1NS(=O)(=O)C(F)(F)F (stereo not drawn) [Compound 381]
Plant response rating, Ducksalad (0 to 100 scale, 0 is no effect, 100 is complete control) [1]: 50
Galium plant response rating [2, 5]: 0
Plant response rating, Galium [2, 8]: 50
Plant response rating, Ragweed [3, 6]: 0
Plant response rating, Ragweed [3, 7]: 0
Oat, Wild plant response rating [4, 5]: 0
Plant response rating, Oat, Wild [4, 8]: 20
Plant response rating, Kochia (kochia (Bassia scoparia); [6]): 0
Plant response rating, Kochia (kochia (Bassia scoparia); [7]): 60

Cc1c(C2=NOC3(CCCC3)C2)cc(N(COC(=O)C(C)(C)C)S(=O)(=O)C(F)(F)F)c(C)c1C [Compound 382]
Plant response rating, Ducksalad (0 to 100 scale, 0 is no effect, 100 is complete control) [1]: 25
Galium plant response rating [2, 5]: 0
Plant response rating, Galium [2, 8]: 50
Plant response rating, Ragweed [3, 6]: 0
Plant response rating, Ragweed [3, 7]: 0
Oat, Wild plant response rating [4, 5]: 0
Plant response rating, Oat, Wild [4, 8]: 0
Plant response rating, Kochia (kochia (Bassia scoparia); [6]): 0
Plant response rating, Kochia (kochia (Bassia scoparia); [7]): 0

Cc1cc(C)c(N(COC(=O)C(C)(C)C)S(=O)(=O)C(F)(F)F)cc1C1=NOC(C(C)C)C1 (stereo not drawn) [Compound 383]
Plant response rating, Ducksalad (0 to 100 scale, 0 is no effect, 100 is complete control) [1]: 25
Galium plant response rating [2, 5]: 0
Plant response rating, Galium [2, 8]: 60
Plant response rating, Ragweed [3, 6]: 0
Plant response rating, Ragweed [3, 7]: 0
Oat, Wild plant response rating [4, 5]: 0
Plant response rating, Oat, Wild [4, 8]: 10
Plant response rating, Kochia (kochia (Bassia scoparia); [6]): 0
Plant response rating, Kochia (kochia (Bassia scoparia); [7]): 0

Cc1cc(C)c(N2CC3(CCCCC3)CC2=O)cc1NS(=O)(=O)C(F)(F)F [Compound 392]
Plant response rating, Ducksalad (0 to 100 scale, 0 is no effect, 100 is complete control) [1]: 65
Galium plant response rating [2, 5]: 50
Plant response rating, Galium [2, 8]: 80
Plant response rating, Ragweed [3, 6]: 0
Plant response rating, Ragweed [3, 7]: 0
Oat, Wild plant response rating [4, 5]: 0
Plant response rating, Oat, Wild [4, 8]: 0
Plant response rating, Kochia (kochia (Bassia scoparia); [6]): 20
Plant response rating, Kochia (kochia (Bassia scoparia); [7]): 20

Cc1cc(Cl)c(NS(=O)(=O)C(F)(F)F)cc1N1CCC2(CCCCC2)C1=O [Compound 393]
Plant response rating, Ducksalad (0 to 100 scale, 0 is no effect, 100 is complete control) [1]: 95
Galium plant response rating [2, 5]: 100
Plant response rating, Galium [2, 8]: 100
Plant response rating, Ragweed [3, 6]: 40
Plant response rating, Ragweed [3, 7]: 90
Oat, Wild plant response rating [4, 5]: 0
Plant response rating, Oat, Wild [4, 8]: 10
Plant response rating, Kochia (kochia (Bassia scoparia); [6]): 60
Plant response rating, Kochia (kochia (Bassia scoparia); [7]): 80

Cc1cc(Cl)c(NS(=O)(=O)C(F)(F)F)cc1N1CC2(CCCCC2)OC1=O [Compound 394]
Plant response rating, Ducksalad (0 to 100 scale, 0 is no effect, 100 is complete control) [1]: 85
Galium plant response rating [2, 5]: 100
Plant response rating, Galium [2, 8]: 100
Plant response rating, Ragweed [3, 6]: 40
Plant response rating, Ragweed [3, 7]: 90
Oat, Wild plant response rating [4, 5]: 0
Plant response rating, Oat, Wild [4, 8]: 0
Plant response rating, Kochia (kochia (Bassia scoparia); [6]): 30
Plant response rating, Kochia (kochia (Bassia scoparia); [7]): 60

Cc1cc(C)c(N(COC(=O)C(C)(C)C)S(=O)(=O)C(F)(F)F)cc1N1CCC2(CCC(F)(F)CC2)C1=O [Compound 397]
Plant response rating, Ducksalad (0 to 100 scale, 0 is no effect, 100 is complete control) [1]: 75
Plant response rating, Galium [2, 8]: 100
Plant response rating, Galium ([2]; 500 g ai/ha, 0 to 100 scale): 100
Plant response rating, Ragweed [3, 7]: 90
Plant response rating, Ragweed [3, 9]: 90
Plant response rating, Oat, Wild [4, 8]: 10
Plant response rating, Oat, Wild ([4]; 500 g ai/ha, 0 to 100 scale): 0
Plant response rating, Kochia (kochia (Bassia scoparia); [7]): 90
Plant response rating, Kochia (kochia (Bassia scoparia); [9]): 100

COC1CCC2(CC1)CCN(c1cc(NS(=O)(=O)C(F)(F)F)c(C)cc1C)C2=O (stereo not drawn) [Compound 398]
Plant response rating, Ducksalad (0 to 100 scale, 0 is no effect, 100 is complete control) [1]: 95
Galium plant response rating [2, 5]: 80
Plant response rating, Galium [2, 8]: 90
Plant response rating, Ragweed [3, 6]: 20
Plant response rating, Ragweed [3, 7]: 80
Oat, Wild plant response rating [4, 5]: 0
Plant response rating, Oat, Wild [4, 8]: 10
Plant response rating, Kochia (kochia (Bassia scoparia); [6]): 40
Plant response rating, Kochia (kochia (Bassia scoparia); [7]): 50

Cc1cc(C)c(N2CCC3(CCC(C(F)(F)F)CC3)C2=O)cc1NS(=O)(=O)C(F)(F)F (stereo not drawn) [Compound 400]
Plant response rating, Ducksalad (0 to 100 scale, 0 is no effect, 100 is complete control) [1]: 55
Galium plant response rating [2, 5]: 80
Plant response rating, Galium [2, 8]: 100
Plant response rating, Ragweed [3, 6]: 70
Plant response rating, Ragweed [3, 7]: 90
Oat, Wild plant response rating [4, 5]: 0
Plant response rating, Oat, Wild [4, 8]: 0
Plant response rating, Kochia (kochia (Bassia scoparia); [6]): 0
Plant response rating, Kochia (kochia (Bassia scoparia); [7]): 20

Cc1cc(C)c(N(COC(=O)C(C)(C)C)S(=O)(=O)C(F)(F)F)cc1N1CCC2(CCC(C)CC2)C1=O (stereo not drawn) [Compound 401]
Plant response rating, Ducksalad (0 to 100 scale, 0 is no effect, 100 is complete control) [1]: 45
Galium plant response rating [2, 5]: 50
Plant response rating, Galium [2, 8]: 80
Plant response rating, Ragweed [3, 6]: 0
Plant response rating, Ragweed [3, 7]: 10
Oat, Wild plant response rating [4, 5]: 0
Plant response rating, Oat, Wild [4, 8]: 30
Plant response rating, Kochia (kochia (Bassia scoparia); [6]): 0
Plant response rating, Kochia (kochia (Bassia scoparia); [7]): 0

Cc1cc(C)c(N2CCC3(CCC(C)CC3)C2=O)cc1NS(=O)(=O)C(F)(F)F (stereo not drawn) [Compound 402]
Plant response rating, Ducksalad (0 to 100 scale, 0 is no effect, 100 is complete control) [1]: 45
Galium plant response rating [2, 5]: 70
Plant response rating, Galium [2, 8]: 90
Plant response rating, Ragweed [3, 6]: 20
Plant response rating, Ragweed [3, 7]: 50
Oat, Wild plant response rating [4, 5]: 10
Plant response rating, Oat, Wild [4, 8]: 10
Plant response rating, Kochia (kochia (Bassia scoparia); [6]): 0
Plant response rating, Kochia (kochia (Bassia scoparia); [7]): 30

Cc1cc(C)c(N2Cc3cccc(C)c3C2=O)cc1NS(=O)(=O)Cl [Compound 408]
Plant response rating, Ducksalad (0 to 100 scale, 0 is no effect, 100 is complete control) [1]: 75
Galium plant response rating [2, 5]: 90
Plant response rating, Galium [2, 8]: 100
Plant response rating, Ragweed [3, 10]: 50
Oat, Wild plant response rating [4, 5]: 70
Plant response rating, Oat, Wild [4, 8]: 70
Plant response rating, Kochia (kochia (Bassia scoparia); [6]): 0
Plant response rating, Kochia (kochia (Bassia scoparia); [10]): 70

CCOc1cccc2c1C(=O)N(c1cc(N(COC(=O)C(C)(C)C)S(=O)(=O)Cl)c(C)cc1C)C2 [Compound 414]
Plant response rating, Ducksalad (0 to 100 scale, 0 is no effect, 100 is complete control) [1]: 40
Galium plant response rating [2, 5]: 60
Plant response rating, Galium [2, 8]: 70
Plant response rating, Ragweed [3, 10]: 20
Oat, Wild plant response rating [4, 5]: 0
Plant response rating, Oat, Wild [4, 8]: 0
Plant response rating, Kochia (kochia (Bassia scoparia); [6]): 20
Plant response rating, Kochia (kochia (Bassia scoparia); [10]): 80

Cc1cc(C)c(N2Cc3cccc(Br)c3C2=O)cc1NS(=O)(=O)Cl [Compound 415]
Plant response rating, Ducksalad (0 to 100 scale, 0 is no effect, 100 is complete control) [1]: 65
Galium plant response rating [2, 5]: 60
Plant response rating, Galium [2, 8]: 90
Plant response rating, Ragweed [3, 10]: 90
Oat, Wild plant response rating [4, 5]: 10
Plant response rating, Oat, Wild [4, 8]: 30
Plant response rating, Kochia (kochia (Bassia scoparia); [6]): 10
Plant response rating, Kochia (kochia (Bassia scoparia); [10]): 60
